Test results as given in PubChem BioAssay AID2060502 (Molecular Pharmacology Branch, DTP, NCI, 2025).
Several values for one entry are separate records, joined by “and”; a condition that tells them apart may be missing. Equal entries are not always repeated. Each block holds one compound with its values, some of them ahead of it.

Tested on: 885724-159-R-J1-PDC complex spheroid viability
Experiment: Anticancer human tumor 885724-159-R-J1-PDC patient-derived pancreatic adenocarcinoma cell line growth inhibition [GQUAD]
Settings: for viability, T/C: stronger effect = lower value
Source text: DNA G-quadruplex Stabilizer Agents in Combinations in Complex Spheroids
A high-throughput screen of multi-cell type tumor spheroids was designed to identify active combinations of DNA G-quadruplex stabilizer agents and targeted small molecules. Complex spheroids include a stromal component modeled by human endothelial cells (HUVEC) and fibroblasts modeled by human mesenchymal stem cells (MSCs). The concentration ranges selected for each drug and investigational agent were based upon clinically achievable concentrations if the clinical Cmax of the agent was known.
Compounds. The drugs and investigational agents: pidnarulex (CX-5461; NSC782164), APTO-253 (NSC789042), BRACO-19 (NSC847499), peposertib (NSC802822), ceralasertib (NSC780249), elimusertib (NSC800525), camonsertib (NSC841442), AZD-1390 (NSC803789), olaparib (NSC753686), talazoparib (NSC767125), ART-558 (NSC835418), sotorasib (NSC818433), MRTX-1133 (NSC836407), SN-38 (NSC673596), topotecan (NSC609699), etoposide (NSC141540), doxorubicin (NSC123127), gemcitabine (NSC613327), 5-fluorouracil (NSC19893), paclitaxel (NSC125973), vemurafenib (NSC761431), panobinostat (NSC761190), R-306465 (JNJ-16241199; NSC773264), adavosertib (NSC754352), TP-3654 (NSC805149), carboplatin (NSC241240), KSQ-4279 (NSC840948), and staurosporine (NSC755774) were obtained from the National Cancer Institute (NCI) Developmental Therapeutics Program Chemical Repository (34). The FDA-approved anticancer drug set is available from the NCI Developmental Therapeutics Program. […] The stock solutions were prepared in dimethyl sulfoxide (DMSO, Sigma-Aldrich, St. Louis, MO, cat. D2650) at 800-fold the tested concentration and stored at -70 degrees C prior to their use. All drugs and investigational agents were tested over a range starting from a high concentration at or near the clinical Cmax and decreasing in half-log increments. If the clinical Cmax for an agent had not been determined, the highest concentration tested was 10 microM.
2.3 Cell Culture. All cells were maintained in an incubator at 37 degrees C and 5% CO2 with 95% humidity. The PDC lines were cultured according to standard operating procedures established by the NCI PDMR. All PDCs were thawed and cultured in Matrigel-coated flasks prepared with a working solution of 1X Ham's F-12 nutrient mix, without supplementation (Invitrogen, cat. 11765054), 100 U/mL penicillin-streptomycin (Invitrogen, cat. 15140122), and 2.5% Matrigel (Corning Inc., cat. 354248) for the first three passages. The 857933-349-R-J2-PDC line was cultured in 6C/Colon 1B media, which includes advanced DMEM/F-12 (Thermo Fisher Scientific, cat. 12634028), 10 mM HEPES (Thermo Fisher Scientific, cat. 15630080), 1X GlutaMAX supplement (Thermo Fisher Scientific, cat. 35050061), 0.1 mg/mL primocin (InvivoGen, cat. ant-pm-2), 10% defined fetal bovine serum, heat inactivated (HyClone Laboratories Inc., cat. SH30070.03HI), 50% L-WRN conditioned media (ATCC, cat. CRL-3276), 1.25 mM N-Acetyl-L-cysteine (Sigma-Aldrich, cat. A9165), 10 mM nicotinamide (Sigma-Aldrich, cat. N0636), 1X B-27 supplement (Thermo Fisher Scientific, cat. 17504044), 1X N-2 supplement (Thermo Fisher Scientific, cat. 17502048), 10 microM Y-27632 dihydrochloride (Tocris Bioscience, cat. 1254), and 50 ng/mL human EGF recombinant protein (Thermo Fisher Scientific, cat. PHG0311). The 485176-168-R4-J1-PDC line was cultured in Panc media, which includes all 6C/Colon 1B media components plus 100 ng/mL human FGF-10 (Thermo Fisher Scientific, cat. 100-26), 500 nM SB-431542 (Selleckchem, cat. S1067), and gastrin (Tocris, cat. 3006).
[…]
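Note: spheroids exposed to agents for seven days before readout.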
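Throughout, for viability, T/C: percent of vehicle control viability where 100% = DMSO wells.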

SMILES: Cn1ncnc1[C@H]1c2n[nH]c(=O)c3cc(F)cc(c23)N[C@@H]1c1ccc(F)cc1 + Cc1[nH]c2ccc(F)cc2c1-c1nc2c3cccnc3c3ncccc3c2[nH]1
IC50 (curve of first compound, second compound 0.0316 µM): > 0.316 µM
IC50 (curve of first compound, second compound 0.1 µM): > 0.316 µM
IC50 (curve of first compound, second compound 0.316 µM): > 0.316 µM
IC50 (curve of first compound, second compound 1 µM): > 0.316 µM
IC50 (curve of first compound, second compound 3.16 µM): < 0.000999 µM
IC50 (curve of first compound, second compound 10 µM): > 0.316 µM
viability, T/C (second compound 0.0316 µM, first compound 0.000999 µM): 104%
viability, T/C (second compound 0.0316 µM, first compound 0.00316 µM): 95.2%
viability, T/C (second compound 0.0316 µM, first compound 0.00999 µM): 106%
viability, T/C (second compound 0.0316 µM, first compound 0.0316 µM): 80.6%
viability, T/C (second compound 0.0316 µM, first compound 0.0999 µM): 91.9%
viability, T/C (second compound 0.0316 µM, first compound 0.316 µM): 95.8%
viability, T/C (second compound 0.1 µM, first compound 0.000999 µM): 97.5%
viability, T/C (second compound 0.1 µM, first compound 0.00316 µM): 90%
viability, T/C (second compound 0.1 µM, first compound 0.00999 µM): 85.6%
viability, T/C (second compound 0.1 µM, first compound 0.0316 µM): 93.9%
viability, T/C (second compound 0.1 µM, first compound 0.0999 µM): 88.3%
viability, T/C (second compound 0.1 µM, first compound 0.316 µM): 80.2%
viability, T/C (second compound 0.316 µM, first compound 0.000999 µM): 87.3%
viability, T/C (second compound 0.316 µM, first compound 0.00316 µM): 106%
viability, T/C (second compound 0.316 µM, first compound 0.00999 µM): 92%
viability, T/C (second compound 0.316 µM, first compound 0.0316 µM): 91.3%
viability, T/C (second compound 0.316 µM, first compound 0.0999 µM): 80.8%
viability, T/C (second compound 0.316 µM, first compound 0.316 µM): 82.2%
viability, T/C (second compound 1 µM, first compound 0.000999 µM): 78%
viability, T/C (second compound 1 µM, first compound 0.00316 µM): 68.4%
viability, T/C (second compound 1 µM, first compound 0.00999 µM): 68.8%
viability, T/C (second compound 1 µM, first compound 0.0316 µM): 73.6%
viability, T/C (second compound 1 µM, first compound 0.0999 µM): 72%
viability, T/C (second compound 1 µM, first compound 0.316 µM): 81%
viability, T/C (second compound 3.16 µM, first compound 0.000999 µM): 40.1%
viability, T/C (second compound 3.16 µM, first compound 0.00316 µM): 36.1%
viability, T/C (second compound 3.16 µM, first compound 0.00999 µM): 43.8%
viability, T/C (second compound 3.16 µM, first compound 0.0316 µM): 33.8%
viability, T/C (second compound 3.16 µM, first compound 0.0999 µM): 38%
viability, T/C (second compound 3.16 µM, first compound 0.316 µM): 42.8%
viability, T/C (second compound 10 µM, first compound 0.000999 µM): 63%
viability, T/C (second compound 10 µM, first compound 0.00316 µM): 78.6%
viability, T/C (second compound 10 µM, first compound 0.00999 µM): 73.6%
viability, T/C (second compound 10 µM, first compound 0.0316 µM): 66.8%
viability, T/C (second compound 10 µM, first compound 0.0999 µM): 80.6%
viability, T/C (second compound 10 µM, first compound 0.316 µM): 68.2%

IC50 (curve of compound): > 10 µM
SMILES: COc1ncnc(C2CC2)c1-c1ncc2cnn(Cc3ccc(-c4nc(C(F)(F)F)cn4C(C)C)cc3)c2n1
viability, T/C (compound 0.0316 µM): 86.6% and 90.5% and 93%
viability, T/C (compound 0.1 µM): 95.1% and 90.7% and 98.2%
viability, T/C (compound 0.316 µM): 99% and 97.4% and 93.2%
viability, T/C (compound 1 µM): 99.8% and 90.6% and 97.7%
viability, T/C (compound 3.16 µM): 90.2% and 96% and 92.5%
viability, T/C (compound 10 µM): 115% and 101% and 113%

IC50 (curve of compound): > 10 µM
SMILES: Cc1cccc(N(C)C(=O)C2C(O)CCN2c2nc(C)cc(C(F)(F)F)c2C#N)c1 (stereo not drawn)
viability, T/C (compound 0.0316 µM): 98.5% and 93% and 97.9%
viability, T/C (compound 0.1 µM): 93.8% and 90.7% and 89.8%
viability, T/C (compound 0.316 µM): 90.9% and 103% and 97%
viability, T/C (compound 1 µM): 92.1% and 105% and 93.5%
viability, T/C (compound 3.16 µM): 97.1% and 97.4% and 96.8%
viability, T/C (compound 10 µM): 95.8% and 104% and 89.9%

IC50 (curve of compound): > 10 µM
SMILES: Nc1ccn(C2OC(CO)C(O)C2(F)F)c(=O)n1 (stereo not drawn)
viability, T/C (compound 0.0316 µM): 94.4% and 88% and 85.7%
viability, T/C (compound 0.1 µM): 93.7% and 90.3% and 81.5%
viability, T/C (compound 0.316 µM): 74.7% and 78.5% and 86.1%
viability, T/C (compound 1 µM): 73.9% and 75.2% and 79.9%
viability, T/C (compound 3.16 µM): 80.9% and 58.4% and 67%
viability, T/C (compound 10 µM): 69% and 61% and 68.9%
